Laboratory results reported in US10316017B2, “COT modulators and methods of use thereof” (Gilead Sciences, Inc., priority 2015, dated 2019).

Key:
[1] = system: TNFα production in LPS-stimulated human monocytes; assay: Cot Monocyte TNFα Cell Based Assay; conditions: Homo sapiens, Monocyte, TNFα in LPS-stimulated human monocytes; read-out: EC50 TNF
Outline: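 Cells at 5,000/well were pretreated with compound for 1 h at 37 °C (0.5% DMSO final), then stimulated with 50 pg/ml LPS for 4 h at 37 °C. Supernatant TNFα was measured by two-antibody TR-FRET after overnight room-temperature incubation; values are percent of control between unstimulated and stimulated wells.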

[2] = target: T1, human Cot catalytic domain (30-397 amino acids) (Homo sapiens, UniProt P41279); assay: High Throughput Cot Biochemical Assay (KinEASE TR-FRET); conditions: Cot biochemical HTRF (KinEASE TR-FRET) assay; read-out: IC50 HTRF
T1 construct: Purified recombinant human Cot catalytic domain (30-397 amino acids) was purchased from Cama Biosciences; purchased Cama Biosciences (so in the source)
T1 sequence (P41279 30-397): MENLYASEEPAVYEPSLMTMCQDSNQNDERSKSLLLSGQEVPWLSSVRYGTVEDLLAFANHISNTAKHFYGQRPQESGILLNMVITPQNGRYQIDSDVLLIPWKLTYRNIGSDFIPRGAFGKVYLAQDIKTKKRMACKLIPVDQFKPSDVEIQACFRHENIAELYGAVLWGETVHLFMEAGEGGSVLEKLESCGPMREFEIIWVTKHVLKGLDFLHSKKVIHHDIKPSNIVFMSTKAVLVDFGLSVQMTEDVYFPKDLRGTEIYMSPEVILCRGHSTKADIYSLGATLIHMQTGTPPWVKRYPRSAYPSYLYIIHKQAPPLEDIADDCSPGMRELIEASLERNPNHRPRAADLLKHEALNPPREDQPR
Outline: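 Reaction of 5 nM recombinant human Cot catalytic domain (aa 30-397) with 1 μM STK3 peptide (XL665-labeled) and 400 μM ATP in 10 mM MOPS pH 7.0, 10 mM MgOAc, 1 mM DTT, 0.5 mg/mL BSA, 0.1% DMSO. Phosphopeptide detected by TR-FRET with europium anti-phospho antibody.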

`C[C@@H](Nc1c(C#N)cnc2c(Cl)cc(N[C@@H](c3cccc(C(=O)N(C)C)c3)c3cn(C4CCN(C(C)(C)C)CC4)nn3)cc12)c1ccccc1` [Example 571, 3-((S)-(1-(1-(tert-butyl)piperidin-4-yl)-1H-1,2,3-triazol-4-yl)((8-chloro-3-cyano-4-(((R)-1-phenylethyl)amino)quinolin-6-yl)amino)methyl)-N,N-dimethylbenzamide] was tested. Which EC50 [1] did it give?
The EC50 was 382 nM.

What about the IC50 [2] of the same molecule?
The IC50 was 6 nM.

Which EC50 [1] does the source give for `CN(C)C(=O)c1cccc([C@H](Nc2cc(Cl)c3ncc(C#N)c(Nc4ccc(Cl)c(Cl)c4F)c3c2)c2cn(C3CCN(C(C)(C)C)CC3)nn2)c1` [Example 572, (S)-3-((1-(1-(tert-butyl)piperidin-4-yl)-1H-1,2,3-triazol-4-yl)((8-chloro-3-cyano-4-((3,4-dichloro-2-fluorophenyl)amino)quinolin-6-yl)amino)methyl)-N,N-dimethylbenzamide] here?
Its EC50 is 111 nM.

What about the IC50 [2] of the same molecule?
Its IC50 is 2 nM.

Which results are given for `CN(C)C(=O)c1cccc([C@H](Nc2cc(Cl)c3ncc(C#N)c(Nc4ccc(Cl)c(Cl)c4F)c3c2)c2c[nH]nn2)c1` [Example 573, (S)-3-(((8-chloro-3-cyano-4-((3,4-dichloro-2-fluorophenyl)amino)quinolin-6-yl)amino)(1H-1,2,3-triazol-4-yl)methyl)-N,N-dimethylbenzamide]?
EC50 [1]: 462 nM; IC50 [2]: 10 nM

How did the EC50 [1] turn out when `N#Cc1cnc2c(Cl)cc(N[C@@H](c3ccccc3)c3cn(C4C5CN(C6COC6)CC54)nn3)cc2c1Nc1ccc(F)c(Cl)c1` (stereo partly drawn) [Example 574, 8-chloro-4-((3-chloro-4-fluorophenyl)amino)-6-(((1S)-(1-(3-(oxetan-3-yl)-3-azabicyclo[3.1.0]hexan-6-yl)-1H-1,2,3-triazol-4-yl)(phenyl)methyl)amino) quinoline-3-carbonitrile] was run?
The EC50 was 161 nM.

And the IC50 [2]?
Its IC50 is 42 nM.

What does the source list for `N#Cc1cnc2c(Cl)cc(N[C@@H](c3cccc(CN4CCCC4)c3)c3c[nH]nn3)cc2c1Nc1ccc(F)c(Cl)c1` [Example 575, (S)-8-chloro-4-((3-chloro-4-fluorophenyl)amino)-6-(((3-(pyrrolidin-1-ylmethyl)phenyl) (1H-1,2,3-triazol-4-yl)methyl)amino)quinoline-3-carbonitrile]?
EC50 [1]: 429 nM; IC50 [2]: 10 nM

With `CCN1CC2C(C1)C2n1cc([C@@H](Nc2cc(Cl)c3ncc(C#N)c(Nc4ccc(F)c(Cl)c4)c3c2)c2ccccc2)nn1` (stereo partly drawn) [Example 576, 8-chloro-4-((3-chloro-4-fluorophenyl)amino)-6-(((1S)-(1-(3-ethyl-3-azabicyclo[3.1.0]hexan-6-yl)-1H-1,2,3-triazol-4-yl)(phenyl)methyl)amino) quinoline-3-carbonitrile] as the molecule, how does the EC50 [1] read?
Its EC50 is 72 nM.

What about the IC50 [2] of the same molecule?
Its IC50 is 2 nM.

How did the EC50 [1] turn out when `N#Cc1cnc2c(Cl)cc(N[C@@H](c3ccccc3)c3cn(C4C5CNCC54)nn3)cc2c1Nc1ccc(F)c(Cl)c1` (stereo partly drawn) [Example 577, 6-(((1S)-(1-(3-azabicyclo[3.1.0]hexan-6-yl)-1H-1,2,3-triazo1-4-yl)(phenyl)methyl)amino)-8-chloro-4-((3-chloro-4-fluorophenyl)amino)quinoline-3-carbonitrile] was run?
Its EC50 is 38 nM.

And the IC50 [2]?
The IC50 was 3 nM.

How did the EC50 [1] turn out when `C[C@@H](Nc1c(C#N)cnc2c(Cl)cc(N[C@@H](c3cccc(C(=O)N(C)C)c3)c3c[nH]nn3)cc12)c1ccccc1` [Example 578, 3-((S)-((8-chloro-3-cyano-4-(((R)-1-phenylethyl)amino)quinolin-6-yl)amino)(1H-1,2,3-triazol-4-yl)methyl)-N,N-dimethylbenzamide] was run?
Its EC50 is 2150 nM.

What about the IC50 [2] of the same molecule?
The IC50 was 13 nM.

How did the EC50 [1] turn out when `CC(C)n1cc([C@@H](Nc2cc(Cl)c3ncc(C#N)c(N[C@H](C)c4ccccc4)c3c2)c2cccc(C(=O)N(C)C)c2)nn1` [Example 579, 3-((S)-((8-chloro-3-cyano-4-(((R)-1-phenylethyl)amino)quinolin-6-yl)amino)(1-isopropyl-1H-1,2,3-triazol-4-yl)methyl)-N,N-dimethylbenzamide] was run?
Its EC50 is 713 nM.

What about the IC50 [2] of the same molecule?
Its IC50 is 8 nM.

With `CC(C)(C)N1CCC(n2cc([C@@H](Nc3cc(Cl)c4ncc(C#N)c(NN5CCOCC5)c4c3)c3ccccc3)nn2)CC1` [Example 580, (S)-6-(((1-(1-(tert-butyl)piperidin-4-yl)-1H-1,2,3-triazol-4-yl)(phenyl)methyl)amino)-8-chloro-4-(morpholinoamino)quinoline-3-carbonitrile] as the molecule, how does the EC50 [1] read?
Its EC50 is 1590 nM.

What about the IC50 [2] of the same molecule?
The IC50 was 287 nM.

For `CC(C)(C)N1CCC(n2cc([C@@H](Nc3cc(Cl)c4ncc(C#N)c(N[C@H]5CCc6ccccc65)c4c3)c3ccccc3)nn2)CC1` [Example 581, 6-(((S)-(1-(1-(tert-butyl)piperidin-4-yl)-1H-1,2,3-triazol-4-yl)(phenyl)methyl)amino)-8-chloro-4-(((S)-2,3-dihydro-1H-inden-1-yl)amino)quinoline-3-carbonitrile], which EC50 [1] is on record?
Its EC50 is 4220 nM.

And the IC50 [2]?
The IC50 was 333 nM.

Which results are given for `CC(C)(C)N1CCC(n2cc([C@@H](Nc3cc(Cl)c4ncc(C#N)c(N[C@@H]5CCc6ccccc65)c4c3)c3ccccc3)nn2)CC1` [Example 583, 6-(((S)-(1-(1-(tert-butyl)piperidin-4-yl)-1H-1,2,3-triazol-4-yl)(phenyl)methyl)amino)-8-chloro-4-(((R)-2,3-dihydro-1H-inden-1-yl)amino)quinoline-3-carbonitrile]?
EC50 [1]: 4360 nM; IC50 [2]: 1000 nM

Which results are given for `CC(C)(C)N1CCC(n2cc([C@@H](Nc3cc(Cl)c4ncc(C#N)c(Nc5cnc(F)c(F)c5)c4c3)c3ccccc3)nn2)CC1` [Example 584, (S)-6-(((1-(1-(tert-butyl)piperidin-4-yl)-1H-1,2,3-triazol-4-yl)(phenyl)methyl)amino)-8-chloro-4-((5,6-difluoropyridin-3-yl)amino)quinoline-3-carbonitrile]?
EC50 [1]: 403 nM; IC50 [2]: 10 nM

For `Cc1ccccc1[C@@H](C)Nc1c(C#N)cnc2c(Cl)cc(N[C@@H](c3ccccc3)c3cn(C4CCN(C(C)(C)C)CC4)nn3)cc12` [Example 585, 6-(((S)-(1-(1-(tert-butyl)piperidin-4-yl)-1H-1,2,3-triazol-4-yl)(phenyl)methyl)amino)-8-chloro-4-(((R)-1-(o-tolyl)ethyl)amino)quinoline-3-carbonitrile], which EC50 [1] is on record?
The EC50 was 427 nM.

And the IC50 [2]?
The IC50 was 16 nM.

With `CC[C@H](C)Nc1c(C#N)cnc2c(Cl)cc(N[C@@H](c3ccccc3)c3cn(C(C)C)nn3)cc12` [Example 586, 4-(((S)-sec-butyl)amino)-8-chloro-6-(((S)-(1-isopropyl-1H-1,2,3-triazol-4-yl)(phenyl)methyl)amino) quinoline-3-carbonitrile] as the molecule, how does the EC50 [1] read?
The EC50 was 8560 nM.

And the IC50 [2]?
Its IC50 is 892 nM.

What does the source list for `CC[C@H](C)Nc1c(C#N)cnc2c(Cl)cc(N[C@@H](c3ccccc3)c3cn(C4CCN(C(C)(C)C)CC4)nn3)cc12` [Example 587, 4-(((S)-sec-butyl)amino)-6-(((S)-(1-(1-(tert-butyl)piperidin-4-yl)-1H-1,2,3-triazol-4-yl)(phenyl)methyl)amino)-8-chloroquinoline-3-carbonitrile]?
EC50 [1]: 3900 nM; IC50 [2]: 144 nM

How did the EC50 [1] turn out when `CC(C)n1cc([C@@H](Nc2cc(Cl)c3ncc(C#N)c(N[C@H](C)c4ccccc4)c3c2)c2ccccc2)nn1` [Example 588, 8-chloro-6-(((S)-(1-isopropyl-1H-1,2,3-triazol-4-yl)(phenyl)methyl)amino)-4-(((R)-1-phenylethyl)amino) quinoline-3-carbonitrile] was run?
Its EC50 is 1020 nM.

And the IC50 [2]?
Its IC50 is 17 nM.

For `CC[C@@H](C)Nc1c(C#N)cnc2c(Cl)cc(N[C@@H](c3ccccc3)c3cn(C(C)C)nn3)cc12` [Example 589, 4-(((R)-sec-butyl)amino)-8-chloro-6-(((S)-(1-isopropyl-1H-1,2,3-triazol-4-yl)(phenyl)methyl)amino)quinoline-3-carbonitrile], which EC50 [1] is on record?
The EC50 was 8440 nM.

What about the IC50 [2] of the same molecule?
Its IC50 is 480 nM.

How did the EC50 [1] turn out when `CC[C@@H](C)Nc1c(C#N)cnc2c(Cl)cc(N[C@@H](c3ccccc3)c3cn(C4CCN(C(C)(C)C)CC4)nn3)cc12` [Example 590, 4-(((R)-sec-butyl)amino)-6-(((S)-(1-(1-(tert-butyl)piperidin-4-yl)-1H-1,2,3-triazol-4-yl)(phenyl)methyl)amino)-8-chloroquinoline-3-carbonitrile] was run?
The EC50 was 3520 nM.

What about the IC50 [2] of the same molecule?
Its IC50 is 131 nM.

What does the source list for `CC(C)n1cc([C@@H](Nc2cc(Cl)c3ncc(C#N)c(Nc4cccc(Cl)c4F)c3c2)c2ccccc2)nn1` [Example 591, (S)-8-chloro-4-((3-chloro-2-fluorophenyl)amino)-6-(((1-isopropyl-1H-1,2,3-triazol-4-yl)(phenyl)methyl)amino) quinoline-3-carbonitrile]?
EC50 [1]: 713 nM; IC50 [2]: 27 nM

For `CC[C@@H](Nc1c(C#N)cnc2c(Cl)cc(N[C@@H](c3ccccc3)c3cn(C(C)C)nn3)cc12)c1ccccc1` [Example 592, 8-chloro-6-(((S)-(1-isopropyl-1H-1,2,3-triazol-4-yl)(phenyl)methyl)amino)-4-(((R)-1-phenylpropyl)amino)quinoline-3-carbonitrile], which EC50 [1] is on record?
Its EC50 is 352 nM.

And the IC50 [2]?
The IC50 was 7 nM.

For `CC1CCN1C(=O)c1cccc([C@H](Nc2cc(Cl)c3ncc(C#N)c(Nc4ccc(F)c(Cl)c4)c3c2)c2cn(C3CCN(C(C)(C)C)CC3)nn2)c1` (stereo partly drawn) [Example 593, 6-(((1S)-(1-(1-(tert-butyl)piperidin-4-yl)-1H-1,2,3-triazol-4-yl)(3-(2-methylazetidine-1-carbonyl)phenyl)methyl)amino)-8-chloro-4-((3-chloro-4-fluorophenyl)amino)quinoline-3-carbonitrile], which EC50 [1] is on record?
Its EC50 is 147 nM.

What about the IC50 [2] of the same molecule?
The IC50 was 1 nM.
